Values quoted from earlier work as cited in article PMC8760190 (Molecular Imaging and Biology, 2021).

Conditions: 90 min after injection, rats and mice

Row | SMILES | Non-metabolized parent compound as share of remaining radioactivity in the brain
1 | CCN(CC)C(=O)Cc1c(-c2ccc(OCC[18F])cc2)nn2c(C)cc(C)nc12 [[^18F]DPA-714] | about 50%
2 | CCN(CC)C(=O)Cc1c(-c2ccc([18F])cc2)nn2c(C)cc(C)nc12 [[^18F]F-DPA] | more than 90%
